Assay results as given in US5352667A, “Non-peptidic surrogates of the Arg-Gly-Asp sequence and pharmaceutical compositions comprising them” (priority 1991, dated 1994).
“Also recorded” adds a separate entry of the source.

Assays:
[1] = system: CD4^+ T cell adhesion to FN; test: Inhibition of activated CD4+ T cell adhesion to FN; type: cell-based, human
Experimental: To examine the adhesive properties of the T cells, 1 μg/50 μl/well of either fibronectin (FN) (Sigma), the 120 kD cell attachment fragment of FN (Telios Pharm. Inc. San Diego, CA), or laminin (LN) (Sigma), were added to 96-flat bottom microtiter-wells for 12 h. Unbound proteins were then washed away and remaining binding sites were blocked with 0.1% bovine serum albumin (BSA) added to the wells for 2 h and washed. CD4+T cells were purified from peripheral blood mononuclear leukocytes obtained from healthy human donors. The mononuclear cells were isolated using a Ficoll gradient, washed and incubated in RPMI supplemented with 10% fetal calf serum (FCS) and antibiotics in petri dishes at 37° C. humidified CO2 incubator. After 2 h, the non-adherent cells were isolated and applied on nylon-wool columns (1.5 h). CD4^+ T cells were then negatively selected by exposure of the cells to a cocktail of anti-CD8, CD19, and CD14 monoclonal antibodies (mAb) conjugated to magnetic-beads (Advanced Magnetics, MA). Unbound cells were recovered and their phenotype was examined. Purity of the CD4^+ T cells was always greater than 92% as determined by FACScan.
The purified CD4^+ T cells were radioactively labeled with ^51 [Cr](New England Nuclear) in RPMI +20% FCS for 2 h and washed. The cells were counted and seeded (0.2×10^5 cells) on the precoated microtiter wells in the presence or the absence of the various inhibitors. Coating was made either with FN, the 120 kD cell-attachment fragment of FN or with control adhesive protein laminin (LN). The inhibitors were various surrogates according to the invention, other test molecules or mAb. After 30 min incubation (in […] CO2 -- humidified incubator) the T cells were activated by 10 ng/ml phorbol myristate acetate (PMA) and the percent of T cells attached to the protein substrates was measured. Unbound cells were washed away after 20-30 min, the bound cells were lysed and their radioactivity was measured using radioactive counter. The amount of the radioactivity of the cell lysates represent the matrix-adherent cells and percent binding was calculated in comparison to the total radioactivity added to the wells. Activated T cell adhesion to control wells or to wells coated with BSA was always 2-5%; the level of adhesion of the non-activated T cells was always below 5%. Where indicated, 1/200 diluted mAb anti-CD29 (anti-β1 mAb Serotec, GB), or 1/400 diluted anti-VLA5 (the β1α5 FN-integrin receptor) mAb (Telios Pharm. Inc. San Diego), or 0.2 mM of RGD, GRGDSPK or GRGESP peptides (Sigma) were used. […] The results shown in Tables 1A, 1B and 1C represent data obtained from several experiments that produced essentially similar results.
In a second series of experiments, FN was used in the adhesion assay carried out with the RGD surrogates NS-8, NS-11 and NS-15 in comparison to RGDS peptide.
In a third series of experiments, FN was used in the adhesion assay with the surrogates SF-6,5 and NS-11 and compared to the peptide GRGDSP.

[2] = system: tumor cell-induced metastases; test: Inhibition of tumor cell-induced metastases in C57BL/6 mice; type: in vivo; conditions: i.v. daily, 25μg of SF-6,5 per mouse, after induction of metastasis
[3] = molecular target: T1, platelet GPIIb-IIIa receptor (Homo sapiens, UniProt P05106+P08514); test: Inhibition of ADP-induced platelet aggregation (platelet rich plasma); type: cell-based
T1 construct: Platelet concentrates were prepared from human whole blood; endogenous in cells; host or cells: human platelets in platelet rich plasma
Experimental: To investigate the inhibitory role of the RGD analogues on adhesion, the platelet GPIIb-IIIa receptor which mediates platelet aggregation upon activation was used as a model.
Platelet concentrates were prepared from human whole blood in 10% adenine-citrate-dextrose in Fenwall bags (Baxter Travenol, Israel) followed by standard AABB protocol. Platelet rich plasma was prepared by centrifugation (2500 rpm for 5 min). Samples of platelets were counted in a Minos AST Cell Counter (Levoiselle, France). Cell aggregation was induced by […] and monitored at […] in a 4-channel Aggregometer (Bio-Data, Hatboro, Pa.). To evaluate the effect of the various RGD peptides and the peptide analogues, the platelet rich plasma was pre-incubated with the various inhibitors for 10 min at 37° C. with 10μsolutions followed by the induction of aggregation.
To examine the specificity of the inhibitory effect of the RGD-analogues on platelet aggregation, the cells were treated with various peptidic (RGD and GRGDSP) and non-peptidic (SF-6,6, SF-6,5 and AC-15) RGD analogues used at a fixed sub-saturating concentration of 0.5 mM.
An in vitro assay as described in Example 17 was carried out with the compound NS-11 to examine its ability to interfere with platelet aggregation, and compared it to the SF-6,5 surrogate.
Platelet rich plasma (PRP) was prepared from acid/citrate/dextrose anti-coagulated fresh human blood by differential centrifugation. Platelet aggregation was induced by […] and monitored at 695 nm by a 4-channel Aggregometer (Bio-Data, PA). To evaluate the effect of the RGDS peptide and the NS-8, NS-11 and NS-15 analogs, the PRP was preincubated with the inhibitors for 10 minutes at 37° C., prior to the induction of aggregation. […] In fact, 50% inhibition of platelet aggregation was achieved using a 30-fold lower concentration of NS-11 than that of RGDS.

[4] = system: B16-melanoma cells adhesion to FN; test: Inhibition of B16-melanoma cell adhesion to FN; type: cell-based, murine
[5] = system: trypsin; test: Treatment with trypsin (HPLC monitoring of hydrolysis); type: in vitro ADME; conditions: 0.25% trypsin, 37° C., HPLC at 220 nm, aliquots 5, 30, 60 min
Experimental: Compound SF-6,5 and the GRGDS peptide (50 μg in 100 μl PBS) were incubated at 37° C. and exposed to 0.25% trypsin (Gibco; 50μl in modified Puck's buffer). Aliquots were taken after 5, 30 and 60 min and monitored by HPLC at 220 nm.

[6] = system: BHK cells and chick embryo fibroblasts; conditions: Yamada and Kennedy, 1987; cited from earlier work

T1 sequence (P08514 32-887 limits assumed): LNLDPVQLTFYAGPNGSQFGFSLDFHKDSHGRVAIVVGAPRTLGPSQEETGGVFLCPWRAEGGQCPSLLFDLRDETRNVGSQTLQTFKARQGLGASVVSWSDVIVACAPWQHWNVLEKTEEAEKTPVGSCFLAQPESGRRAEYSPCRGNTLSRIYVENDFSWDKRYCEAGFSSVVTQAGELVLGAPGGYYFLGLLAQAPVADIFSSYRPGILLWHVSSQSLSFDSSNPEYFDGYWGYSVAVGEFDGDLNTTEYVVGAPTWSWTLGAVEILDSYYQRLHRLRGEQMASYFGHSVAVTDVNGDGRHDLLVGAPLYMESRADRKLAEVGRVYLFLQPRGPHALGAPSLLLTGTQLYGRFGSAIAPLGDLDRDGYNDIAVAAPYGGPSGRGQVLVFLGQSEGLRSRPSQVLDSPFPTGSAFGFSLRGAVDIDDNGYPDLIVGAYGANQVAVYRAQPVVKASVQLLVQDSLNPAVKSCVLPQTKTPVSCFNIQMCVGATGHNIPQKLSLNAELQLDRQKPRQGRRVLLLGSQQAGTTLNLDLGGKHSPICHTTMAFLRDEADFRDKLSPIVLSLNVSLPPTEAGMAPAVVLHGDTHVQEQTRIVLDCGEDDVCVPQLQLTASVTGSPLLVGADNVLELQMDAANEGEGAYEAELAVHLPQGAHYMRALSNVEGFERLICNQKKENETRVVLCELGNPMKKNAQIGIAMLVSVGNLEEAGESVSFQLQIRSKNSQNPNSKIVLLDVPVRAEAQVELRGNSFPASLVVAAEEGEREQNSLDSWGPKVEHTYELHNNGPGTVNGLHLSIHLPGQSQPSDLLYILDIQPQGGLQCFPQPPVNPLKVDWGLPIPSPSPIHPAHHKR
T1 sequence (P08514 891-1039 limits assumed): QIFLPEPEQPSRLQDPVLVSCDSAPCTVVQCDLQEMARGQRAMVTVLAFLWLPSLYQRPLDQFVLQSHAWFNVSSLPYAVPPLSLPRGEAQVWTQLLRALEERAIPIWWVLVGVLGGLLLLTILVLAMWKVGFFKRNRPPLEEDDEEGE
T1 sequence (P05106 27-788): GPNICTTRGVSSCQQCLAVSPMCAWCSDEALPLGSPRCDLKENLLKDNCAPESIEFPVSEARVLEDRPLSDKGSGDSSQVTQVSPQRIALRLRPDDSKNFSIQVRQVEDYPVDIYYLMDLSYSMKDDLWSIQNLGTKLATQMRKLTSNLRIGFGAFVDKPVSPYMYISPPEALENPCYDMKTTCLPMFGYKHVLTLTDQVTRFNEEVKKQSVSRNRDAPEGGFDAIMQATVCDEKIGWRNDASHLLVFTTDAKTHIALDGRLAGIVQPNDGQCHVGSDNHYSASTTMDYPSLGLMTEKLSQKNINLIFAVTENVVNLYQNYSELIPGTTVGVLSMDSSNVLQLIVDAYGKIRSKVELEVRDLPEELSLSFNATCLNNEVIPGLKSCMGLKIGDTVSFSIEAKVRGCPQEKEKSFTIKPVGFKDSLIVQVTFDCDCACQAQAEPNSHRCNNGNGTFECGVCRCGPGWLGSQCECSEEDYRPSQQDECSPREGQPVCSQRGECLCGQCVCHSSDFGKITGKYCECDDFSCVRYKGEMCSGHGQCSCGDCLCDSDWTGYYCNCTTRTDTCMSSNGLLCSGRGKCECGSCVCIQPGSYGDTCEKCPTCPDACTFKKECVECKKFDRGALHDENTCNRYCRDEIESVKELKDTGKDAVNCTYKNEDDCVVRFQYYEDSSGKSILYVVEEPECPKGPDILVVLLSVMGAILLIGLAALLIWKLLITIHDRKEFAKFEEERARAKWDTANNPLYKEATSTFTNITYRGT

For GRGDSP [reference compound], the “% Adhesion of activated CD4^+ T cell to FN: (% inhibition)” value ([1]; Conc. 25 μg. ml) was 40%, the “% Adhesion of activated CD4^+ T cell to FN: (% inhibition)” value ([1]; Conc. 50 μg. ml) was 50% and the “% Adhesion of activated CD4^+ T cell to FN: (% inhibition)” value ([1]; Conc. 100 μg. ml) was 75%. For the same molecule, the “Inhibition of tumor cell-induced metastases” value [2] was “failed to inhibit metastases”, the “Percent inhibition of aggregation” value ([3]; 0.1 mM, ADP-induced) was 75% and the “% Adhesion of activated tumor cells to FN: (% inhibition)” value ([4]; Conc. 25 μg. ml) was 30%. The “% Adhesion of activated tumor cells to FN: (% inhibition)” value ([4]; Conc. 50 μg. ml) was 40% and the “% Adhesion of activated tumor cells to FN: (% inhibition)” value ([4]; Conc. 100 μg. ml) was 65%.

In the case of GRGDS [reference compound], the Stability to trypsin [5] is reported as “completely hydrolized after 5 min”.

For “Ser-Asp-Gly-Arg (SDGR; printed: Ser-Asp-Gly-Arg)”, the “Inhibition of cell spreading, in words” value [6] is given as “inhibit spreading of BHK cells and chick embryo fibroblasts on vitronectin-coated substrates and on fibronectin-coated substrates”.

For N=C(N)NCCCC(=O)N1CCCC(C(=O)NCCC(=O)O)C1 (stereo not shown) [NS-11], the “% Adhesion of activated CD4^+ T cell to FN: (% inhibition)” value ([1]; Conc. 25 μg. ml) was 30%, the “% Adhesion of activated CD4^+ T cell to FN: (% inhibition)” value ([1]; Conc. 50 μg. ml) was 50% and the “% Adhesion of activated CD4^+ T cell to FN: (% inhibition)” value ([1]; Conc. 100 μg. ml) was 85%. The “Inhibition of cell adhesion relative to RGDS, in words” value ([1]; Table 1B) was “better inhibitor of cell adhesion than the RGDS peptide”, the “% Inhibition of adhesion” value ([1]; Table 1B, surrogates 0.2 mM, CD4^+ T cell to FN) was 71% and the “% Adhesion of activated CD4^+ to FN” value ([1]; Table 1B, surrogates 0.2 mM, none 65) was 19%. The inhibition at 100 µM ([3]; 0.1 mM, ADP-induced, read-out: Percent inhibition of aggregation) was 90%, the “Effect on platelet aggregation better than that of the RGD-peptide by” value ([3]; 0.1 mM, same concentration) was roughly 20% and the inhibition at 300 µM ([3]; 0.3 mM, ADP-induced, read-out: Percent inhibition of aggregation) was 100%. The “Inhibition of platelet aggregation, comparison in words” value ([3]; FIG. 5, Example 19) was “better inhibitor of platelet aggregation than either NS-8 and NS-15; also recorded: found to inhibit platelet aggregation better than the RGD-containing peptide (RGDS)”, the “50% inhibition of platelet aggregation: lower concentration than that of RGDS” value ([3]; FIG. 5, vs RGDS) was 30 fold and the “Inhibition of platelet aggregation, in words” value ([3]; Table 3) was “better inhibitor of platelet aggregation than SF-6,5; also recorded: significantly better inhibitor than the RGD-containing peptide”. For the same molecule, the “% Adhesion of activated tumor cells to FN: (% inhibition)” value ([4]; Conc. 25 μg. ml) was 35%, the “% Adhesion of activated tumor cells to FN: (% inhibition)” value ([4]; Conc. 50 μg. ml) was 45% and the “% Adhesion of activated tumor cells to FN: (% inhibition)” value ([4]; Conc. 100 μg. ml) was 70%.
